{"source": "patent US8575155B2", "about": "“Composition and method to modify sperm function and increase male gender ratio in mammals” (priority 2008, dated 2013)", "origin": "cited, not measured here", "key": {"[1]": {"system": "bovine oocytes"}, "[2]": {"system": "early-staged mouse embryos"}}, "data": [{"smiles": "CCN(CC)c1cc2c(cc1C)Nc1ccc(N)cc1O2", "note": "[BCB, 2-methyl-3-diethylamino-7-amino phenoxazine]", "values": [{"measurement": "increase in oxidation of glucose through the HMS", "setting": "[1]", "value": 15, "unit": "fold"}, {"measurement": "increase in glucose oxidation through glycolysis", "setting": "[1]; compared with the increase through the HMS", "value": "somewhat less increase"}, {"measurement": "toxicity of BCB and its metabolites", "setting": "[2]", "value": "relatively non-toxic"}]}]}
